Converted amounts (≈) assume the structure as drawn. Read-outs that look alike come from different tables or passages of the source.
Legend:
[1] = system: M. tuberculosis H37Rv (ATCC 27294); assay: In vitro anti-tuberculosis screening, BACTEC 460 radiometric system, percent inhibition of growth; format: cell-based, Mycobacterium tuberculosis; details: for inhibition at 12.5 µg/mL: Mycobacterium tuberculosis
Mtb = assay: Actual minimum inhibitory concentration (MIC), lowest concentration inhibiting 99% of the inoculum; format: cell-based, Mycobacterium tuberculosis; details: read-out: minimum inhibitory concentration (MIC)
[2] = Mtb H37Rv, 12.5 μg/mL, BACTEC 12B medium
[3] = Mtb H37Rv, 12.5 μg/mL, BACTEC 12B medium, read-out: Activity % inhibition at 12.5 μg/mL (chalcones)
[4] = Mtb H37Rv, drug concentration 12.5 μg/mL, read-out: inhibition of the growth of Mtb
[5] = Mycobacterium tuberculosis, lowest concentration inhibiting 99% of the inoculum
[6] = read-out: Activity % inhibition at 12.5 μg/mL (chalcone-like compounds), Mtb H37Rv, 12.5 μg/mL, BACTEC 12B medium
[7] = read-out: inhibition of the growth of Mtb, Mtb H37Rv, drug concentration 12.5 μg/mL
[8] = Mtb H37Rv, 12.5 μg/mL, BACTEC 12B medium, read-out: Activity % Inhibition at 12.5 μg/mL (flavanones)
[9] = Mtb H37Rv, 12.5 μg/mL, BACTEC 12B medium, read-out: Activity % Inhibition at 12.5 μg/mL (biflavonoids)
[10] = Mtb H37Rv, drug concentration 12.5 μg/mL

Compound: 1-(5-pyridin-2-yl)-3-(phenanthen-9-yl)-2-propen-1-one [Compound 55]
- Activity % inhibition at 12.5 μg/mL (chalcone-like compounds) [1, 2]: 96%
- MIC (Mtb; lowest concentration inhibiting 99% of the inoculum): 20.2 µM

Compound: O=C(/C=C/c1cccc(Cl)c1)c1ccccc1O [Compound 24, 3-Chloro-2′-hydroxychalcone]
- inhibition at 12.5 µg/mL [1, 3]: 90%
- inhibition at 12.5 µg/mL [1, 4]: 90%
- MIC (Mtb; [5]): 48.3 µM (≈ 12.5 µg/mL)
- melting point: 108 to 108.5 °C

Compound: O=C(/C=C/c1cccc(I)c1)c1ccccc1O [Compound 40, 3-Iodo-2′-hydroxychalcone]
- inhibition at 12.5 µg/mL [1, 3]: 92%
- inhibition at 12.5 µg/mL [1, 4]: 92%
- MIC (Mtb; [5]): > 35.7 µM

Compound: O=C(C=Cc1cccnc1)c1ccc(F)cc1 [Compound 53, 1-(4-Fluorophenyl)-3-(pyridin-3-yl)-2-propen-1-one]
- inhibition at 12.5 µg/mL [1, 6]: 98%
- inhibition at 12.5 µg/mL [1, 7]: 98%
- MIC (Mtb; Mycobacterium tuberculosis): 6.8 µM (≈ 1.55 µg/mL)
- melting point: 126 to 127 °C

Compound: O=C(C=Cc1cc2ccccc2c2ccccc12)c1cccc(O)c1 [Compound 54, 1-(3-Hydroxyphenyl)-3-phenanthren-9-yl-2-propen-1-one]
- inhibition at 12.5 µg/mL [1, 6]: 97%
- inhibition at 12.5 µg/mL [1, 7]: 97%
- MIC (Mtb; Mycobacterium tuberculosis): 19.2 µM (≈ 6.23 µg/mL)
- melting point: 212 to 213 °C

Compound: O=C(C=Cc1ccccc1)c1ccco1 [Compound 56, 1-(Furan-2-yl)-3-phenyl-2-propen-1-one]
- inhibition at 12.5 µg/mL [1, 6]: 96%
- inhibition at 12.5 µg/mL [1, 7]: 96%
- MIC (Mtb; Mycobacterium tuberculosis): 31.5 µM (≈ 6.24 µg/mL)
- melting point: 94 to 95 °C

Compound: COc1ccc(Br)c2c1C(=O)CC(c1ccccc1)O2 (centres unmarked) [Compound 133, 5-Methoxy-8-bromo-flavanone]
- inhibition at 12.5 µg/mL [1, 8]: 87%
- inhibition at 12.5 µg/mL [1, 4]: 87%
- melting point: 134 to 165 °C

Compound: O=C1CC(c2ccccc2)Oc2cc(Br)ccc21 (centres unmarked) [Compound 136, 7-bromo-flavanone]
- inhibition at 12.5 µg/mL [1, 8]: 53%
- inhibition at 12.5 µg/mL [1, 4]: 53%

Compound: COc1ccc2c(c1)OC(c1ccc(Cl)cc1)CC2=O (centres unmarked) [Compound 137]
- Activity % Inhibition at 12.5 μg/mL (flavanones) [1, 2]: 48%

Compound: O=C1CC(c2ccccc2)Oc2ccc(Cl)cc21 (centres unmarked) [Compound 138]
- Activity % Inhibition at 12.5 μg/mL (flavanones) [1, 2]: 30%

Compound: O=C1CC(c2ccccc2)Oc2ccc(I)cc21 (centres unmarked) [Compound 139]
- Activity % Inhibition at 12.5 μg/mL (flavanones) [1, 2]: 27%

Compound: COc1cc(OC)c2c(c1)OC(c1cc(OC)c(OC)c(OC)c1)C(Br)(Br)C2=O (centres unmarked) [Compound 140]
- Activity % Inhibition at 12.5 μg/mL (flavanones) [1, 2]: 16%

Compound: O=C1CC(c2ccccc2)Oc2cc(I)ccc21 (centres unmarked) [Compound 141]
- Activity % Inhibition at 12.5 μg/mL (flavanones) [1, 2]: 9%

Compound: O=C1CC(c2ccccc2)Oc2ccc(Br)cc21 (centres unmarked) [Compound 142]
- Activity % Inhibition at 12.5 μg/mL (flavanones) [1, 2]: 8%

Compound: O=C1CC(c2ccccc2)Oc2cc(F)ccc21 (centres unmarked) [Compound 143]
- Activity % Inhibition at 12.5 μg/mL (flavanones) [1, 2]: 7%

Compound: COc1cc(OC)c2c(c1)OC(c1cc(OC)c(OC)c(OC)c1)CC2=O (centres unmarked) [Compound 144]
- Activity % Inhibition at 12.5 μg/mL (flavanones) [1, 2]: 0%

Compound: COc1ccc(C2CC(=O)c3cc(C(=O)O)ccc3O2)cc1 (centres unmarked) [Compound 145]
- Activity % Inhibition at 12.5 μg/mL (flavanones) [1, 2]: 0%

Compound: O=C(O)c1ccc2c(c1)C(=O)CC(c1ccccc1)O2 (centres unmarked) [Compound 146]
- Activity % Inhibition at 12.5 μg/mL (flavanones) [1, 2]: 0%

Compound: COc1ccc2c(c1)OC(c1cccc([N+](=O)[O-])c1)CC2=O (centres unmarked) [Compound 147]
- Activity % Inhibition at 12.5 μg/mL (flavanones) [1, 2]: 0%

Compound: O=C1c2ccccc2OC(c2ccccc2)C1(Br)Br (centres unmarked) [Compound 148]
- Activity % Inhibition at 12.5 μg/mL (flavanones) [1, 2]: 0%

Compound: COc1ccc(C2CC(=O)c3ccc(I)cc3O2)cc1 (centres unmarked) [Compound 149]
- Activity % Inhibition at 12.5 μg/mL (flavanones) [1, 2]: 0%

Compound: COc1ccc(-c2cc(=O)c3c(OC)c(-c4c(OC)cc5oc(-c6ccc(OC)cc6)cc(=O)c5c4OC)c(OC)cc3o2)cc1 [Compound 151, 6,6″-Biapigenin hexamethylether]
- inhibition at 12.5 µg/mL [1, 9]: 96%
- inhibition at 12.5 µg/mL [1, 4]: 96%
- MIC (Mtb; [5]): > 20.1 µM
- melting point: 303 to 304 °C

Compound: COc1ccc(-c2cc(=O)c3c(OC)cc(OC)c([C@@H]4C(=O)c5c(OC)cc(OC)cc5O[C@H]4c4ccc(OC)cc4)c3o2)cc1 [Compound 152, Volkensiflavone hexamethylether]
- Activity % Inhibition at 12.5 μg/mL (biflavonoids) [1, 2]: 95%
- inhibition of the growth of Mtb [1, 10]: 95%

Compound: COc1ccc([C@@H]2CC(=O)c3c(OC)cc(OC)c([C@H]4C(=O)c5c(OC)cc(OC)cc5O[C@@H]4c4ccc(OC)cc4)c3O2)cc1 [Compound 153, GB-1a hexamethylether]
- Activity % Inhibition at 12.5 μg/mL (biflavonoids) [1, 2]: 87%
- inhibition of the growth of Mtb [1, 10]: 87%

Compound: O=c1cc(-c2cccc(-c3cccc4c(=O)cc(-c5ccccc5)oc34)c2)oc2ccccc12 [Compound 155, 3′-8′′-Biflavone]
- anti-TB activity in words ([1]; Mtb H37Rv, 12.5 μg/mL): moderate activity
- Activity % Inhibition at 12.5 μg/mL (biflavonoids) [1, 2]: 49%

Compound: O=c1cc(-c2ccccc2)oc2ccc(-c3ccccc3-c3cc(=O)c4ccccc4o3)cc12 [Compound 156, 6-2′′′′-Biflavone]
- Activity % Inhibition at 12.5 μg/mL (biflavonoids) [1, 2]: 9%

Compound: COc1ccc(C2CC(=O)c3c(cc(OC)c(-c4c(OC)cc5c(c4OC)C(=O)CC(c4ccc(OC)cc4)O5)c3OC)O2)cc1 (centres unmarked) [Compound 157, 6-6′′-Binaringenin hexamethylether]
- anti-TB activity in words ([1]; Mtb H37Rv, 12.5 μg/mL): inactive
- Activity % Inhibition at 12.5 μg/mL (biflavonoids) [1, 2]: 2%

Compound: COc1ccc(-c2oc3cc(OC)cc(OC)c3c(=O)c2-c2c(-c3ccc(OC)cc3)oc3cc(OC)cc(OC)c3c2=O)cc1 [Compound 159, 3-3″-Biapigenin hexamethylether]
- anti-TB activity in words ([1]; Mtb H37Rv, 12.5 μg/mL): completely devoid of activity
- Activity % Inhibition at 12.5 μg/mL (biflavonoids) [1, 2]: 0%

Compound: COc1ccc2c(c1)OC(c1ccccc1)C(C1C(=O)c3ccc(OC)cc3OC1c1ccccc1)C2=O (centres unmarked) [Compound 160, 3-3″-Bi-(7-methoxyflavanone)]
- Activity % Inhibition at 12.5 μg/mL (biflavonoids) [1, 2]: 0%

Compound: O=c1cc(-c2ccccc2-c2cccc3c(=O)cc(-c4ccccc4)oc23)oc2ccccc12 [Compound 161, 8-2′′′-Biflavone]
- Activity % Inhibition at 12.5 μg/mL (biflavonoids) [1, 2]: 0%

Compound: O=c1cc(-c2cccc(-c3ccc4c(=O)cc(-c5ccccc5)oc4c3)c2)oc2ccccc12 [Compound 162, 7-3′′′-Biflavone]
- Activity % Inhibition at 12.5 μg/mL (biflavonoids) [1, 2]: 0%

Compound: O=c1cc(-c2ccc(O)c(-c3c(O)cc(O)c4c(=O)cc(-c5ccc(O)cc5)oc34)c2)oc2cc(O)cc(O)c12 [Compound 164, Amentoflavone]
- inhibition at 12.5 µg/mL [1, 9]: 0%

Compound: O=c1cc(-c2ccc(O)c(-c3c(O)cc4oc(-c5ccc(O)cc5)cc(=O)c4c3O)c2)oc2cc(O)cc(O)c12 [Compound 166, Robustaflavone]
- inhibition at 12.5 µg/mL [1, 9]: 0%

Compound: O=c1cc(-c2ccc(Oc3c(O)cc4oc(-c5ccc(O)cc5)cc(=O)c4c3O)cc2)oc2cc(O)cc(O)c12 [Compound 167, Hinokiflavone]
- inhibition at 12.5 µg/mL [1, 9]: 0%

Compound: O=C1CC(c2ccc(O)cc2)Oc2cc(O)c(-c3c(O)cc(O)c4c3OC(c3ccc(O)cc3)CC4=O)c(O)c21 (centres unmarked) [Compound 168, Rhusflavanone]
- Activity % Inhibition at 12.5 μg/mL (biflavonoids) [1, 2]: 0%

Compound: O=C1c2c(O)cc(O)cc2O[C@H](c2ccc(O)cc2)[C@H]1c1c(O)cc(O)c2c(=O)cc(-c3ccc(O)c(O)c3)oc12 [Compound 171, Morelloflavone]
- inhibition at 12.5 µg/mL [1, 9]: 0%

Compound: O=C1C[C@@H](c2ccc(O)c(O)c2)Oc2c1c(O)cc(O)c2[C@H]1C(=O)c2c(O)cc(O)cc2O[C@@H]1c1ccc(O)cc1 [Compound 172, GB-2a]
- Activity % Inhibition at 12.5 μg/mL (biflavonoids) [1, 2]: 0%

Compound: CC(=O)Oc1ccc([C@@H]2CC(=O)c3c(cc(OC(C)=O)c(-c4c(OC(C)=O)cc(OC(C)=O)c5c4O[C@H](c4ccc(OC(C)=O)cc4)CC5=O)c3OC(C)=O)O2)cc1 [Compound 173, Rhusflavanone hexaacetate]
- Activity % Inhibition at 12.5 μg/mL (biflavonoids) [1, 2]: 0%

Compound: CC(=O)Oc1ccc([C@@H]2CC(=O)c3c(cc(OC(C)=O)c(-c4c(OC(C)=O)cc5c(c4OC(C)=O)C(=O)C[C@@H](c4ccc(OC(C)=O)cc4)O5)c3OC(C)=O)O2)cc1 [Compound 174, Succedaneaflavanone hexaacetate]
- Activity % Inhibition at 12.5 μg/mL (biflavonoids) [1, 2]: 0%

Compound: CC(=O)Oc1ccc(C2Oc3cc(OC(C)=O)cc(OC(C)=O)c3C(=O)C2c2c(OC(C)=O)cc(OC(C)=O)c3c(=O)cc(-c4ccc(OC(C)=O)c(OC(C)=O)c4)oc23)cc1 (centres unmarked) [Compound 175, Morelloflavone heptaacetate]
- Activity % Inhibition at 12.5 μg/mL (biflavonoids) [1, 2]: 0%

Compound: O=C1c2c(O)cc(O)cc2OC(c2ccc(O)cc2)C1c1c(O[C@@H]2O[C@H](CO)[C@@H](O)[C@H](O)[C@H]2O)cc(O)c2c(=O)cc(-c3ccc(O)cc3)oc12 (some centres unmarked) [Compound 176, Spicataside]
- Activity % Inhibition at 12.5 μg/mL (biflavonoids) [1, 2]: 0%

Compound: CC(=O)OC[C@H]1O[C@@H](Oc2cc(OC(C)=O)c3c(=O)cc(-c4ccc(OC(C)=O)cc4)oc3c2C2C(=O)c3c(OC(C)=O)cc(OC(C)=O)cc3OC2c2ccc(OC(C)=O)cc2)[C@H](OC(C)=O)[C@@H](OC(C)=O)[C@@H]1OC(C)=O (some centres unmarked) [Compound 177, Spicataside acetate]
- Activity % Inhibition at 12.5 μg/mL (biflavonoids) [1, 2]: 0%

Compound: O=C1C[C@@H](c2ccc(O)cc2)Oc2c1c(O)cc(O[C@@H]1O[C@H](CO)[C@@H](O)[C@H](O)[C@H]1O)c2[C@H]1C(=O)c2c(O)cc(O)cc2O[C@@H]1c1ccc(O)cc1 [Compound 178, Multifloraside]
- Activity % Inhibition at 12.5 μg/mL (biflavonoids) [1, 2]: 0%

Compound: O=C1CC(c2ccc(O)c(O)c2)Oc2c1c(O)cc(OC1OC(CO)C(O)C(O)C1O)c2C1C(=O)c2c(O)cc(O)cc2OC1c1ccc(O)cc1 (centres unmarked) [Compound 179, Xanthochymuside]
- Activity % Inhibition at 12.5 μg/mL (biflavonoids) [1, 2]: 0%

Compound: Suceedaneaflavanone [Compound 169]
- Activity % Inhibition at 12.5 μg/mL (biflavonoids) [1, 2]: 0%
